Assay results as given in paper PMC6881293, “Nanomolar-potency ‘co-potentiator’ therapy for cystic fibrosis caused by a defined subset of minimal function CFTR mutants” (Scientific Reports, 2019).
Each block holds one compound with its values, some of them ahead of it.

Experiments:
N1303K-CFTR = target: T1, N1303K-CFTR (Homo sapiens, UniProt P13569, N1303K); test: Short-circuit current in FRT cells expressing N1303K-CFTR; type: cell-based
T1 construct: expressed in transfected cells
Experimental: Based on prior studies[10],[11],[20], we hypothesized that distinct binding sites may be required to bind a potentiator and co-potentiator to rescue channel activity of CFTR mutants. We defined the potentiator VX-770 as a Class I compound, and co-potentiator ASP-11 as a Class II compound (Fig. 3A,D). Short-circuit current measurements in N1303K-CFTR-expressing FRT cells confirmed synergy when ASP-11 was added after VX-770 (Fig. 3Bi). […] In each experiment, CFTRinh-172 confirmed that current was from CFTR.
Figure 3 Definition of Class I and II CFTR potentiators. (A) Chemical structures of Class I and II potentiators. (B) Short-circuit current in FRT cells expressing N1303K-CFTR in response to forskolin and indicated potentiators. Concentrations: 20 μM forskolin, 5 μM VX-770, 20 μM ASP-11, 20 μM GLPG1837, 20 μM P2, 20 μM P3, 20 μM P5, 20 μM W1282Xpot-C01, and 10 μM CFTRinh-172. C. Short-circuit current in FRT cells expressing Q1313X-CFTR in response to forskolin and indicated potentiators. Concentrations: as in panel B, and 25 μM apigenin. (D) Summary of relative N1303K-CFTR activation in response to combinations of Class I and Class II potentiators. Mean ± S.E.M., n = 3. TEXT PRINTED IN THE PICTURE: (D) VX-770: N1303K-CFTR: P5: 1% ±1%; N1303K-CFTR: GLPG 1837: 10% ±5%; N1303K-CFTR: ASP-11: 100% ±3%; N1303K-CFTR: apigenin: 100% ±5% | (D) P5: N1303K-CFTR: VX-770: 1% ±1%; N1303K-CFTR: GLPG 1837: 2% ±2%; N1303K-CFTR: ASP-11: 52% ±5%; N1303K-CFTR: apigenin: 56% ±5% | (D) GLPG 1837: N1303K-CFTR: VX-770: 0% ±5%; N1303K-CFTR: P5: 2% ±2%; N1303K-CFTR: ASP-11: 100% ±4%; N1303K-CFTR: apigenin: 98% ±5% | (D) ASP-11: N1303K-CFTR: VX-770: 100% ±3%; N1303K-CFTR: P5: 47% ±4%; N1303K-CFTR: GLPG 1837: 100% ±5%; N1303K-CFTR: apigenin: 7% ±3% | (D) apigenin: N1303K-CFTR: VX-770: 100% ±5%; N1303K-CFTR: P5: 50% ±5%; N1303K-CFTR: GLPG 1837: 100% ±5%; N1303K-CFTR: ASP-11: 5% ±2% DOUBTS OF THE COPYIST ABOUT THIS PICTURE: Panel D is a matrix of pairs of substances (row substance combined with column substance). The picture prints no name for the measure, only % values and a 0%–100% colour scale. / The print in panel D is small, so 3, 5, 6 and 8 are hard to tell apart in these values. / VX-770 / GLPG 1837: ±5% could be ±3% / VX-770 / ASP-11: ±3% could be ±5% / VX-770 / apigenin: ±5% could be ±3% / P5 / ASP-11: 52% ±5%, digits uncertain / P5 / apigenin: 56% could be 58%, and ±5% is uncertain / GLPG 1837 / VX-770: 0% ±5%, error digit uncertain / GLPG 1837 / apigenin: 98% could be 96%, and ±5% is uncertain / ASP-11 / VX-770: ±3% could be ±5% / ASP-11 / GLPG 1837: ±5% could be ±3% / ASP-11 / apigenin: 7% ±3%, error digit uncertain / apigenin / VX-770: ±5% could be ±3% / apigenin / P5: 50% ±5%, digits uncertain / apigenin / GLPG 1837: ±5% could be ±3% / apigenin / ASP-11: 5% ±2%, the 5 is uncertain
(§1) Figures 5C,D show data in N1303K- and Q1313X-expressing FRT cells.
(§2) Short-circuit current was measured on cells cultured on Snapwell clear permeable supports (Corning) as described[10],[11]. Hemichambers were connected to a DVC-1000 voltage clamp (World Precision Instruments Inc., Sarasota, FL) via Ag/AgCl electrodes and 3 M KCl agar bridges for recording of the short-circuit current. For human airway epithelial cells, symmetrical HCO3^−-buffered solutions (in mM: 120 NaCl, 5 KCl, 1 MgCl2, 1 CaCl2, 5 Hepes, 25 NaHCO3, 10 glucose, pH 7.4) for basolateral and apical side were used. For FRT cells, the basolateral membrane was permeabilized with 250 μg/ml amphotericin B, and experiments were done with a chloride gradient using a HCO3^−-buffered solutions (Basolateral (mM): 120 NaCl, 5 KCl, 1 MgCl2, 1 CaCl2, 5 Hepes, 25 NaHCO3, 10 glucose, pH 7.4; apical (mM): 60 NaCl, 60 mM sodium gluconate, 5 KCl, 1 MgCl2, 1 CaCl2, 5 Hepes, 25 NaHCO3, 10 glucose, pH 7.4). All cells were equilibrated with 95% O2, 5% CO2 and maintained at 37 °C during experiments.

Q1313X-CFTR = target: T2, Q1313X-CFTR (Homo sapiens, UniProt P13569); test: Short-circuit current in FRT cells expressing Q1313X-CFTR; type: cell-based
T2 construct: expressed in transfected cells
Experimental: As shown in Fig. 1C and summarized in Fig. 2, ASP-11 acted in synergy with VX-770 to increase chloride current in FRT cells expressing the NBD2 mutations I1234del- and Q1313X-CFTR by ~3–9-fold compared to VX-770. I1234del- and Q1313X-CFTR-expressing cells were also treated with VX-809 for 24 hours (to consider the effect of available CFTR therapeutics) with 2–3-fold greater currents observed.
Studies on FRT cells expressing Q1313X-CFTR produced similar data (Fig. 3C).
as §1, §2

T1 sequence (P13569 whole entry N1303K): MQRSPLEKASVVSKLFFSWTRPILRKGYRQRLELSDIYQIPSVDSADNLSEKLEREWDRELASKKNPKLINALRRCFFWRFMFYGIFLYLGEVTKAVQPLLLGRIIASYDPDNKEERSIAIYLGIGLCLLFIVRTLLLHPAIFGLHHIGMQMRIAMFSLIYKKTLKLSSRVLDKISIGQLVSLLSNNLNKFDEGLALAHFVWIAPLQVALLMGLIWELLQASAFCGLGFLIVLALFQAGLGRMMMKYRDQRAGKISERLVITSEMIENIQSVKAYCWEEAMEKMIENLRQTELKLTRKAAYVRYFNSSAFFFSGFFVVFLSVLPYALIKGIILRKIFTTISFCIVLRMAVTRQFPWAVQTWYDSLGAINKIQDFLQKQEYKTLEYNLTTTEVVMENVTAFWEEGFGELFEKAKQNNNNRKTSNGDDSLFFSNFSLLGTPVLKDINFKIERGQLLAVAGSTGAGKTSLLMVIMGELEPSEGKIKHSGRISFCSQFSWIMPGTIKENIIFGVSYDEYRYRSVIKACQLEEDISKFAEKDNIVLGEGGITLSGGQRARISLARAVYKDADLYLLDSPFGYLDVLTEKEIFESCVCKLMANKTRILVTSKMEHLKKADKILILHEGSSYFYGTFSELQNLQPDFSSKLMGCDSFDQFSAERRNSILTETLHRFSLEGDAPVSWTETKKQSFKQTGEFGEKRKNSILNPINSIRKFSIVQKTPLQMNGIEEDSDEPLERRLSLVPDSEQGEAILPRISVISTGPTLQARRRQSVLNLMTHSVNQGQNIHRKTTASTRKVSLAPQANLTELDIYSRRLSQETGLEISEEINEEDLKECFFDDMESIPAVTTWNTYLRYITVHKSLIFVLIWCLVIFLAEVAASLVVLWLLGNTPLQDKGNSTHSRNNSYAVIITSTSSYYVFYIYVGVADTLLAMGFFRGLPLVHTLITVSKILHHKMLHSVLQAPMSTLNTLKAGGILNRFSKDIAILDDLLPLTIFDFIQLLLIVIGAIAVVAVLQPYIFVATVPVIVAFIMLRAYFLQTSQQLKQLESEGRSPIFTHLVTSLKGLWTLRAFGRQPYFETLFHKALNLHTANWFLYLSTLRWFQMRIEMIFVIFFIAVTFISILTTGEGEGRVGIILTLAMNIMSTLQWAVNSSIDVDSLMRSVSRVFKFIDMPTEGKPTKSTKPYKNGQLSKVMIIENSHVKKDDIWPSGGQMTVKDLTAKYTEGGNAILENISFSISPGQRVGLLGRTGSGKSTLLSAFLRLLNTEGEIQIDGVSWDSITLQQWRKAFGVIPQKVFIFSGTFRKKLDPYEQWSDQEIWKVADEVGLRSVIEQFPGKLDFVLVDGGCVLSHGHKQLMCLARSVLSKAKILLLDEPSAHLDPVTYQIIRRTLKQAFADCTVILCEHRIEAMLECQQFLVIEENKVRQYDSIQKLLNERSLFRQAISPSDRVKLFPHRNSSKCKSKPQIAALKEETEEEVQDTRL
T2 sequence (P13569 1-1312 limits assumed): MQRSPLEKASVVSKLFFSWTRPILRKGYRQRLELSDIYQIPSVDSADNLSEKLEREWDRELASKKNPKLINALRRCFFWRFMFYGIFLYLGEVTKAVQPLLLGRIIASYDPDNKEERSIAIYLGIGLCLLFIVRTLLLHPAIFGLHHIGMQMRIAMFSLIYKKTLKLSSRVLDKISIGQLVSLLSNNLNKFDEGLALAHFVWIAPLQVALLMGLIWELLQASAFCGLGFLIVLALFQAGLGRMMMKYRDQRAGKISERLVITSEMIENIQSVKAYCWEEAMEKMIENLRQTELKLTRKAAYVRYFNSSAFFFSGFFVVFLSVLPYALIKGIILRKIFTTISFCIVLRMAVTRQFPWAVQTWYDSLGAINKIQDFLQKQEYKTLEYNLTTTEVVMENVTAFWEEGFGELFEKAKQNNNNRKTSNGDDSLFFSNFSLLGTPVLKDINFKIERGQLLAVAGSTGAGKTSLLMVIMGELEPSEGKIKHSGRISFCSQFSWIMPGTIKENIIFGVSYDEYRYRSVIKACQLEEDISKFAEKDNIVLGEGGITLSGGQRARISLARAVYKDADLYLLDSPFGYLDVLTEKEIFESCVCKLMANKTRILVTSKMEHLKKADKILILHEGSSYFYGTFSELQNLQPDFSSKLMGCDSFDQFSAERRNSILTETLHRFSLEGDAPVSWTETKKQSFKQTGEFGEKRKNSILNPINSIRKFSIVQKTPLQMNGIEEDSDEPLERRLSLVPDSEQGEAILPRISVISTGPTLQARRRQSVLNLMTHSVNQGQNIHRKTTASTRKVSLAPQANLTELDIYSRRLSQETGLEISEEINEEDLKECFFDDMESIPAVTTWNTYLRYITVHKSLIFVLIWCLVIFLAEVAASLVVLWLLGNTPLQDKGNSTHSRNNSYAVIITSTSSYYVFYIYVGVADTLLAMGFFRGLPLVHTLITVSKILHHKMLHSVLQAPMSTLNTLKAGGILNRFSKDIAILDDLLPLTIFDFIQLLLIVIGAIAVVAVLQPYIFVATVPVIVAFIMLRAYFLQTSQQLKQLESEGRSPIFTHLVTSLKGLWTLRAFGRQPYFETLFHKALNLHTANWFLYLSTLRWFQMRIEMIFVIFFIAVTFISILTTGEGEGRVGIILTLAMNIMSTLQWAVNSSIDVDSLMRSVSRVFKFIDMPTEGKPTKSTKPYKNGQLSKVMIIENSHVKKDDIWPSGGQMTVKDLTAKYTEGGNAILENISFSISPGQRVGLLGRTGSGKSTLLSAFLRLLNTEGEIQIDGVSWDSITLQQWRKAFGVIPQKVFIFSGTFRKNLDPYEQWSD

activation by two Class II potentiators added together (N1303K-CFTR; N1303K-CFTR FRT cells, 20 μM W1282Xpot-C01 and 20 μM ASP-11, no Class I potentiator): little activation | short-circuit current response when added after VX-770 (N1303K-CFTR; N1303K-CFTR FRT cells, 20 μM forskolin, 5 μM VX-770, then 20 μM compound): synergy | increase in chloride current with ASP-11 plus VX-770 compared to VX-770 alone (Q1313X-CFTR; Q1313X-CFTR FRT cells, 20 µM forskolin, 5 µM VX-770, 20 µM ASP-11, range stated jointly for I1234del- and Q1313X-CFTR): 3–9 fold
SMILES: CCCCn1cc(S(=O)(=O)Nc2ccc(CC)cc2)c2cccnc21 [ASP-11]

SMILES: COc1ccc2[nH]c3c(c2c1)CCNC31CCN(Cc2ccc(F)cc2F)CC1 [Compound A061]
EC50 (N1303K-CFTR; FRT cells expressing N1303K-CFTR, after 20 µM forskolin and 5 µM VX-770): 2.9 µM | EC50 (Q1313X-CFTR; FRT cells expressing Q1313X-CFTR, after 20 µM forskolin and 5 µM VX-770): 5 µM

short-circuit current response when added after GLPG1837 (N1303K-CFTR; N1303K-CFTR FRT cells, 20 μM forskolin, 20 μM GLPG1837): mildly reduced current | short-circuit current response when added after GLPG1837 (Q1313X-CFTR; Q1313X-CFTR FRT cells, 20 μM forskolin, 20 μM GLPG1837): reduced current
SMILES: CC(C)(C)c1cc(C(C)(C)C)c(NC(=O)c2c[nH]c3ccccc3c2=O)cc1O [VX-770, ivacaftor]
